How the values were obtained:
Type in all cases: functional
[1] = Growth inhibition of human NCI-ADR-RES cells assessed as cell growth at 5X10'-6 M after 48 hrs by sulforhodamine B assay; settings: read-out: Activity
MOLT-4 = assay: Growth inhibition of human MOLT4 cells assessed as cell growth at 3X10'-6 M after 48 hrs by sulforhodamine B assay; settings: MOLT-4, 48 h, read-out: Activity
SF-539 = assay: Growth inhibition of human SF539 cells assessed as cell growth at 3X10'-8 M after 48 hrs by sulforhodamine B assay; settings: SF-539, 48 h, read-out: Activity
OVCAR-8 = assay: Growth inhibition of human OVCAR8 cells assessed as cell growth at 3X10'-8 M after 48 hrs by sulforhodamine B assay; settings: OVCAR-8, 48 h, read-out: Activity
T47D = assay: Growth inhibition of human T47D cells assessed as cell growth at 3X10'-8 M after 48 hrs by sulforhodamine B assay; settings: read-out: Activity
SK-MEL-28 [2] = assay: Growth inhibition of human SK-MEL-28 cells assessed as cell growth at 3X10'-5 M after 48 hrs by sulforhodamine B assay; settings: SK-MEL-28, 48 h, read-out: Activity
SN12C [3] = assay: Growth inhibition of human SN12C cells assessed as cell growth at 3X10'-6 M after 48 hrs by sulforhodamine B assay; settings: read-out: Activity
OVCAR-4 = assay: Growth inhibition of human OVCAR4 cells assessed as cell growth at 3X10'-6 M after 48 hrs by sulforhodamine B assay; settings: OVCAR-4, 48 h, read-out: Activity
NCI-H522 = assay: Growth inhibition of human NCI-H522 cells assessed as cell growth at 3X10'-9 M after 48 hrs by sulforhodamine B assay; settings: NCI-H522, 48 h, read-out: Activity
HL-60(TB) [4] = assay: Growth inhibition of human HL-60(TB) cells assessed as cell growth at 3X10'-8 M after 48 hrs by sulforhodamine B assay; settings: HL-60, 48 h, read-out: Activity
RXF 393 = assay: Growth inhibition of human RXF393 cells assessed as cell growth at 3X10'-7 M after 48 hrs by sulforhodamine B assay; settings: RXF 393, 48 h, read-out: Activity
U-251 = assay: Growth inhibition of human U251 cells assessed as cell growth at 3X10'-6 M after 48 hrs by sulforhodamine B assay; settings: U-251, 48 h, read-out: Activity
HOP-62 = assay: Growth inhibition of human HOP62 cells assessed as cell growth at 3X10'-8 M after 48 hrs by sulforhodamine B assay; settings: HOP-62, 48 h, read-out: Activity
MDA-MB-468 = assay: Growth inhibition of human MDA-MB-468 cells assessed as cell growth at 3X10'-6 M after 48 hrs by sulforhodamine B assay; settings: MDA-MB-468, 48 h, read-out: Activity
HL-60(TB) [5] = assay: Growth inhibition of human HL-60(TB) cells assessed as cell growth at 3X10'-9 M after 48 hrs by sulforhodamine B assay; settings: HL-60, 48 h, read-out: Activity
[6] = Growth inhibition of human HCC2998 cells assessed as cell growth at 3X10'-9 M after 48 hrs by sulforhodamine B assay; settings: HCC 2998, 48 h, read-out: Activity
UACC-257 [7] = assay: Growth inhibition of human UACC257 cells assessed as cell growth at 3X10'-6 M after 48 hrs by sulforhodamine B assay; settings: UACC-257, 48 h, read-out: Activity
UO-31 = assay: Growth inhibition of human UO31 cells assessed as cell growth at 3X10'-9 M after 48 hrs by sulforhodamine B assay; settings: UO-31, 48 h, read-out: Activity
UACC-257 [8] = assay: Growth inhibition of human UACC257 cells assessed as cell growth at 3X10'-8 M after 48 hrs by sulforhodamine B assay; settings: UACC-257, 48 h, read-out: Activity
RPMI-8226 = assay: Growth inhibition of human RPMI8226 cells assessed as cell growth at 3X10'-8 M after 48 hrs by sulforhodamine B assay; settings: RPMI-8226, 48 h, read-out: Activity
HCT-116 = assay: Growth inhibition of human HCT116 cells assessed as cell growth at 3X10'-8 M after 48 hrs by sulforhodamine B assay; settings: HCT-116, 48 h, read-out: Activity
SR [9] = assay: Growth inhibition of human SR cells assessed as cell growth at 3X10'-8 M after 48 hrs by sulforhodamine B assay; settings: read-out: Activity
BT-549 = assay: Growth inhibition of human BT549 cells assessed as cell growth at 3X10'-8 M after 48 hrs by sulforhodamine B assay; settings: BT-549, 48 h, read-out: Activity
Malme-3M = assay: Growth inhibition of human MALME-3M cells assessed as cell growth at 3X10'-8 M after 48 hrs by sulforhodamine B assay; settings: read-out: Activity
TK-10 = assay: Growth inhibition of human TK10 cells assessed as cell growth at 3X10'-7 M after 48 hrs by sulforhodamine B assay; settings: TK-10, 48 h, read-out: Activity
786-0 = assay: Growth inhibition of human 786-0 cells assessed as cell growth at 3X10'-7 M after 48 hrs by sulforhodamine B assay; settings: 786-0, 48 h, read-out: Activity
NCI-H23 = assay: Growth inhibition of human NCI-H23 cells assessed as cell growth at 3X10'-5 M after 48 hrs by sulforhodamine B assay; settings: NCI-H23, 48 h, read-out: Activity
SK-MEL-28 [10] = assay: Growth inhibition of human SK-MEL-28 cells assessed as cell growth at 3X10'-9 M after 48 hrs by sulforhodamine B assay; settings: SK-MEL-28, 48 h, read-out: Activity
NCI-H322M = assay: Growth inhibition of human NCI-H322M cells assessed as cell growth at 3X10'-6 M after 48 hrs by sulforhodamine B assay; settings: read-out: Activity
ACHN = assay: Growth inhibition of human ACHN cells assessed as cell growth at 3X10'-9 M after 48 hrs by sulforhodamine B assay; settings: read-out: Activity
SN12C [11] = assay: Growth inhibition of human SN12C cells assessed as cell growth at 3X10'-7 M after 48 hrs by sulforhodamine B assay; settings: read-out: Activity
SR [12] = assay: Growth inhibition of human SR cells assessed as cell growth at 3X10'-9 M after 48 hrs by sulforhodamine B assay; settings: read-out: Activity
OVCAR-5 = assay: Growth inhibition of human OVCAR5 cells assessed as cell growth at 3X10'-9 M after 48 hrs by sulforhodamine B assay; settings: OVCAR-5, 48 h, read-out: Activity
SF-268 = assay: Growth inhibition of human SF268 cells assessed as cell growth at 3X10'-6 M after 48 hrs by sulforhodamine B assay; settings: SF-268, 48 h, read-out: Activity
M14 = assay: Growth inhibition of human M14 cells assessed as cell growth at 3X10'-7 M after 48 hrs by sulforhodamine B assay; settings: M14, 48 h, read-out: Activity
HCT-15 = assay: Growth inhibition of human HCT15 cells assessed as cell growth at 3X10'-8 M after 48 hrs by sulforhodamine B assay; settings: HCT-15, 48 h, read-out: Activity

O=C(Nc1cccc(-n2cc(-c3ccncc3)c(-c3ccc(Cl)c(O)c3)n2)c1)Nc1cc(C(F)(F)F)cc(C(F)(F)F)c1
growth at 5 µM [1]: 1%

COc1cc(-c2nn(-c3cccc(NC(=O)Nc4ccc(Cl)c(Cl)c4)c3)cc2-c2ccncc2)ccc1Cl
growth at 5 µM [1]: -2%

O=C(Nc1cccc(-n2cc(-c3ccncc3)c(-c3ccc(Cl)c(O)c3)n2)c1)c1ccc(N2CCOCC2)c(C(F)(F)F)c1
growth at 5 µM [1]: 35%

COc1cc(-c2nn(-c3cccc(NC(=O)Nc4cccc(C(F)(F)F)c4)c3)cc2-c2ccncc2)ccc1Cl
growth at 5 µM [1]: -10%

COc1cc(-c2nn(-c3cccc(NC(=O)c4cccc(C(F)(F)F)c4)c3)cc2-c2ccncc2)ccc1Cl
growth at 5 µM [1]: -21%

O=C(Nc1cccc(-n2cc(-c3ccncc3)c(-c3ccc(Cl)c(O)c3)n2)c1)Nc1cccc(C(F)(F)F)c1
growth at 3 µM (MOLT-4): 36%
growth at 0.03 µM (SF-539): 100%
growth at 0.03 µM (OVCAR-8): 106%
growth at 0.03 µM (T47D): 95%
growth at 30 µM (SK-MEL-28 [2]): 3%
growth at 3 µM (SN12C [3]): 37%
growth at 3 µM (OVCAR-4): 49%
growth at 0.003 µM (NCI-H522): 95%
growth at 0.03 µM (HL-60(TB) [4]): 94%
growth at 0.3 µM (RXF 393): 88%
growth at 3 µM (U-251): 29%
growth at 0.03 µM (HOP-62): 98%
growth at 3 µM (MDA-MB-468): 17%
growth at 0.003 µM (HL-60(TB) [5]): 99%
growth at 0.003 µM [6]: 97%
growth at 3 µM (UACC-257 [7]): 60%
growth at 0.003 µM (UO-31): 89%
growth at 0.03 µM (UACC-257 [8]): 100%
growth at 0.03 µM (RPMI-8226): 98%
growth at 0.03 µM (HCT-116): 97%
growth at 0.03 µM (SR [9]): 99%
growth at 0.03 µM (BT-549): 96%
growth at 0.03 µM (Malme-3M): 82%
growth at 0.3 µM (TK-10): 107%
growth at 0.3 µM (786-0): 99%
growth at 30 µM (NCI-H23): 6%
growth at 0.003 µM (SK-MEL-28 [10]): 103%
growth at 3 µM (NCI-H322M): 63%
growth at 0.003 µM (ACHN): 103%
growth at 0.3 µM (SN12C [11]): 99%
growth at 0.003 µM (SR [12]): 94%
growth at 0.003 µM (OVCAR-5): 95%
growth at 3 µM (SF-268): 37%
growth at 0.3 µM (M14): 100%
growth at 0.03 µM (HCT-15): 100%

COc1cc(-c2nn(-c3cccc(NC(=O)Nc4ccc(Cl)c(C(F)(F)F)c4)c3)cc2-c2ccncc2)ccc1Cl
growth at 3 µM (MOLT-4): 9%
growth at 0.03 µM (SF-539): 93%
growth at 0.03 µM (OVCAR-8): 101%
growth at 0.03 µM (T47D): 101%
growth at 30 µM (SK-MEL-28 [2]): -70%
growth at 3 µM (SN12C [3]): 16%
growth at 3 µM (OVCAR-4): 19%
growth at 0.003 µM (NCI-H522): 106%
growth at 0.03 µM (HL-60(TB) [4]): 103%
growth at 0.3 µM (RXF 393): 88%
growth at 3 µM (U-251): 7%
growth at 0.03 µM (HOP-62): 95%
growth at 3 µM (MDA-MB-468): 6%
growth at 0.003 µM (HL-60(TB) [5]): 101%
growth at 0.003 µM [6]: 102%
growth at 3 µM (UACC-257 [7]): 20%
growth at 0.003 µM (UO-31): 92%
growth at 0.03 µM (UACC-257 [8]): 90%
growth at 0.03 µM (RPMI-8226): 97%
growth at 0.03 µM (HCT-116): 103%
growth at 0.03 µM (SR [9]): 107%
growth at 0.03 µM (BT-549): 113%
growth at 0.03 µM (Malme-3M): 102%
growth at 0.3 µM (TK-10): 101%
growth at 0.3 µM (786-0): 101%
growth at 30 µM (NCI-H23): -16%
growth at 0.003 µM (SK-MEL-28 [10]): 99%
growth at 3 µM (NCI-H322M): 29%
growth at 0.003 µM (ACHN): 102%
growth at 0.3 µM (SN12C [11]): 91%
growth at 0.003 µM (SR [12]): 105%
growth at 0.003 µM (OVCAR-5): 99%
growth at 3 µM (SF-268): 25%
growth at 0.3 µM (M14): 100%
growth at 0.03 µM (HCT-15): 97%

Source: ChEMBL document CHEMBL2440076, “New triarylpyrazoles as broad-spectrum anticancer agents: design, synthesis, and biological evaluation” (Eur J Med Chem, 2013)
